The test system of data set [1] is glutathione (GSH). Briefly: Reactivity Profiling with Glutathione (GSH), half-life by HPLC. To be noted: 5 mM glutathione (GSH) in IMDM with 10% FBS.
Description: 3.5 μL of 5 mM stocking solution of the inhibitors in DMSO was added to 697.5 μL of Iscove's Modified Dulbecco's Medium (IMDM) supplemented with 10% FBS and antibiotic antimycotic solution, with 5 mM glutathione to afford a final concentration of 25 μM inhibitor with 0.5% DMSO. The solution was then immediately placed in the sample tray at 25° C. […] For each inhibitor, its peak is integrated at different time points and compared to the time zero injection in order to obtain a percentage remaining. Half-life is calculated according to a first order reaction kinetic taking into account those time points for which remaining percentage of inhibitor is above 40%, using the formula: t½=Ln(2)/k, where k is the slope of the linear plot of Ln[Inhibitor] vs time, according to the formula: Ln[A]=Ln[A]0−kt, where [A] is the value resulting from the integration at each time point, [A]0 the value at time zero, and t the time. For each inhibitor, both replicates are averaged and the resulting t½ reported.
In data set [2] the test system is normal human fibroblast (NHF) cells. Description: NHF Cell Cytotoxicity Assay (CellTiter-Blue, 72 h), off-target effects. In kind it is cell-based. To be noted: pooled NHF cells. How it is done: In some embodiments, the off-target effects of the compounds are evaluated in healthy human cells, such as in a normal human fibroblast (NHF) cell cytotoxicity assay.
Cell viability was examined following treatment at various concentrations of inhibitor (0.097656-50 μM) using a cell Titer-Blue cell viability assay. 1×10^4 normal human fibroblast cells per well were plated in 96-well assay plates in culture medium. All cells are grown in DMEM, IMDM and RPMI-1640 were supplemented with 10% FBS. After 24 hours, test compounds and vehicle controls are added to appropriate wells so the final volume was 100 μl in each well. The cells are cultured for the desired test exposure period (72 hours) at 37° C. and 5% CO2. The assay plates are removed from 37° C. incubator and 20 μL/well of CellTiter-Blue® Reagent is added. The plates are incubated using standard cell culture conditions for 1-4 hours and the plates are shaken for 10 seconds and record fluorescence at 560/590nm. For each sample well, value is normalized between the DMSO control and the highest concentration in case of plateau, and converted into a percentage. In the absence of plateau, minimum lecture is obtained from a different sample within the same experiment. For each concentration, the four replicates are averaged and standard deviation calculated. Data is fitted to a log(inhibitor) vs response curve with variable slope model using Microsoft Excel, obtaining IC50 and Hill slope variables.
A person skilled in the art would appreciate that a higher IC50 value in this NHF assay can indicate lower off-target effects.

Data set [3] concerns MV4-11 cells. Description: MV4-11 Cell Cytotoxicity Assay (CellTiter-Blue, 72 h). The data set is classed as cell-based, human. To be noted: MV-4-11 cells. In a few lines:
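Cells seeded 24 h before treatment, then exposed 72 h at 37° C, 5% CO2 to inhibitors in triplicate, top concentration 50 μM with 1:2 serial dilutions (0.5% DMSO vehicle). Viability read by CellTiter-Blue fluorescence at 560/590 nm after 1 h.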

We go through 18 compounds from patent US20230159445A1, “STAT INHIBITORY COMPOUNDS AND COMPOSITIONS” (JANPIX LIMITED, priority 2020, published 2023).

In data set [1], `COc1cc(C(=O)O)ccc1N(Cc1cc(C2CC2)cc(C2CC2)c1)C(=O)CN(Cc1ncccc1C(F)(F)F)S(=O)(=O)c1c(F)c(F)c(F)c(F)c1F` [Compound 1162, 4-(N-(3,5-dicyclopropylbenzyl)-2-(N-((3-(trifluoromethyl)pyridin-2-yl)methyl)-(2,3,4,5,6-pentafluoro-phenyl)sulfonamido)acetamido)-3-methoxybenzoic acid] registered a half-life at 25 μM of 2.37 to 4.12 h. In data set [2] (Homo sapiens, Fibroblast), this compound gave a concentration for half-maximal inhibition (IC50) of 10 to 20 µM.
In the case of `Cc1cc(C(=O)O)cc(C)c1N(Cc1cc(C2CC2)cc(C2CC2)c1)C(=O)CN(Cc1ccc(F)cc1Cl)S(=O)(=O)c1c(F)c(F)c(F)c(F)c1F` [Compound 1188, 4-(2-(N-(2-chloro-4-fluorobenzyl)-(2,3,4,5,6-pentafluorophenyl)sulfon-amido)-N-(3,5-dicyclopropylbenzyl)acetamido)-3,5-dimethylbenzoic acid], the IC50 in data set [3] (Homo sapiens, MV4-11) lay within 316 to 1000 nM; in data set [2] (Homo sapiens, Fibroblast), 0.001 to 10 µM.
`O=C(O)c1ccc(N(Cc2cc(C3CC3)cc(N3CCCC3)c2)C(=O)CN(Cc2cnccc2C(F)(F)F)S(=O)(=O)c2c(F)c(F)c(F)c(F)c2F)c(OC2CC2)c1` [Compound 1190, 3-cyclopropoxy-4-(N-(3-cyclopropyl-5-(pyrrolidin-1-yl)benzyl)-2-(N-((4-(trifluoromethyl)pyridin-3-yl)methyl)-(2,3,4,5,6-pentafluoro-phenyl)sulfonamido)acetamido)benzoic acid] yielded a half-life at 25 μM in data set [1] of 2.37 to 4.12 h. Besides, the 50% inhibitory concentration (IC50) in data set [2] (Homo sapiens, Fibroblast) was in the range of 0.001 to 10 µM.
In the case of `CC(C)(C)c1cc(CN(C(=O)CN(Cc2ccc(F)cc2Cl)S(=O)(=O)c2c(F)c(F)c(F)c(F)c2F)c2ccc(C(=O)O)cc2C2CC2)cc(C2CC2)c1` [Compound 1193, 4-(N-(3-(tert-butyl)-5-cyclopropylbenzyl)-2-(N-(2-chloro-4-fluorobenzyl)-(2,3,4,5,6-pentafluorophenyl)sulfon-amido)acetamido)-3-cyclopropylbenzoic acid], the IC50 in data set [3] was 0.01 to 316 nM; in data set [2] it was 10 to 20 µM.
On to `Cc1cc(C(=O)O)cc(C)c1N(Cc1cc(C2CC2)cc(C2CC2)c1)C(=O)CN(Cc1c(F)c(F)c(F)c(F)c1F)S(=O)(=O)c1c(F)c(F)c(F)c(F)c1F` [Compound 1204, 4-(N-(3,5-dicyclopropylbenzyl)-2-(N-((perfluorophenyl)methyl)-(2,3,4,5,6-pentafluoro-phenyl)sulfonamido)acetamido)-3,5-dimethylbenzoic acid], for which the IC50 in data set [3] (Homo sapiens, MV4-11) is 316 to 1000 nM; in data set [2] (Homo sapiens, Fibroblast), 0.001 to 10 µM.
`CN(C)c1cc(C(=O)O)ccc1N(Cc1cc(C2CC2)cc(N2CCCC2)c1)C(=O)CN(Cc1ccc(F)cc1Cl)S(=O)(=O)c1c(F)c(F)c(F)c(F)c1F` [Compound 1212, 4-(2-(N-(2-chloro-4-fluorobenzyl)-(2,3,4,5,6-pentafluorophenyl)sulfon-amido)-N-(3-cyclopropyl-5-(pyrrolidin-1-yl)benzyl)acetamido)-3-(dimethylamino) benzoic acid]: the half-maximal inhibitory concentration (IC50) in data set [3] (Homo sapiens, MV4-11) lay within 316 to 1000 nM; in data set [2] (Homo sapiens, Fibroblast), 10 to 20 µM.
Take `O=C(O)c1ccc(N(Cc2cc(C3CC3)cc(C3CC3)c2)C(=O)CN(Cc2ccc(F)cc2C(F)(F)F)S(=O)(=O)c2c(F)c(F)c(F)c(F)c2F)c(OC2CC2)c1` [Compound 1223, 3-cyclopropoxy-4-(N-(3,5-dicyclopropylbenzyl)-2-(N-(4-fluoro-2-(trifluoromethyl)benzyl)-(2,3,4,5,6-pentafluoro-phenyl)sulfonamido)acetamido)benzoic acid]: in data set [1], the half-life at 25 μM was 4.12 to 9.23 h. In addition, the 50% inhibitory concentration (IC50) in data set [2] (Homo sapiens, Fibroblast) was in the range of 20 to 30 µM.
`CC(C)(C)c1cc(CN(C(=O)CN(Cc2ccccc2C#N)S(=O)(=O)c2c(F)c(F)c(F)c(F)c2F)c2ccc(C(=O)O)cc2OC2CC2)cc(C2CC2)c1` [Compound 1224, 4-(N-(3-(tert-butyl)-5-cyclopropylbenzyl)-2-(N-(2-cyanobenzyl)-(2,3,4,5,6-pentafluorophenyl)sulfon-amido)acetamido)-3-cyclopropoxybenzoic acid]: the IC50 in data set [2] (Homo sapiens, Fibroblast) lay within 0.001 to 10 µM.
In data set [1], `O=C(O)c1ccc(N(Cc2cc(C3CC3)cc(C3CC3)c2)C(=O)CN(Cc2ccc(F)cc2Cl)S(=O)(=O)c2c(F)c(F)c(F)c(F)c2F)c(OC2CCOCC2)c1` [Compound 1230, 4-(2-(N-(2-chloro-4-fluorobenzyl)-(2,3,4,5,6-pentafluorophenyl)sulfon-amido)-N-(3,5-dicyclopropylbenzyl)acetamido)-3-((tetrahydro-2H-pyran-4-yl)oxy)benzoic acid] registered a half-life at 25 μM of 2.37 to 4.12 h. In addition, the IC50 in data set [2] (Homo sapiens, Fibroblast) lay in the range of 0.001 to 10 µM.
Turning to `O=C(O)c1ccc(N(Cc2cc(C3CC3)cc(N3CCCC3)c2)C(=O)CN(Cc2ccc(F)cc2Cl)S(=O)(=O)c2c(F)c(F)c(F)c(F)c2F)c(OC2CCCC2)c1` [Compound 1239, 4-(2-(N-(2-chloro-4-fluorobenzyl)-(2,3,4,5,6-pentafluorophenyl)sulfon-amido)-N-(3-cyclopropyl-5-(pyrrolidin-1-yl)benzyl)acetamido)-3-(cyclopentyloxy)benzoic acid], the IC50 in data set [3] (Homo sapiens, MV4-11) was in the range of 0.01 to 316 nM; in data set [2] (Homo sapiens, Fibroblast) it was 20 to 30 µM.
The matching figures for `O=C(O)c1ccc(N(Cc2cc(C3CC3)cc(C3CC3)c2)C(=O)CN(Cc2ccc(F)cc2Cl)S(=O)(=O)c2c(F)c(F)c(F)c(F)c2F)c(N2CCCC2)c1` [Compound 1240, 4-(2-(N-(2-chloro-4-fluorobenzyl)-(2,3,4,5,6-pentafluorophenyl)sulfon-amido)-N-(3,5-dicyclopropylbenzyl)acetamido)-3-(pyrrolidin-1-yl)benzoic acid]: 0.01 to 316 nM and 10 to 20 µM.
Take `CCc1cc(C(=O)O)ccc1N(Cc1cc(C2CC2)cc(C2CC2)c1)C(=O)CN(Cc1ccc(F)cc1Cl)S(=O)(=O)c1c(F)c(F)c(F)c(F)c1F` [Compound 1243, 4-(2-(N-(2-chloro-4-fluorobenzyl)-(2,3,4,5,6-pentafluorophenyl)sulfon-amido)-N-(3,5-dicyclopropylbenzyl)acetamido)-3-ethylbenzoic acid]: the IC50 in data set [2] (Homo sapiens, Fibroblast) lay in the range of 10 to 20 µM.
The same measure, in the same setting: for `CC(C)c1cc(C(=O)O)ccc1N(Cc1cc(C2CC2)cc(C2CC2)c1)C(=O)CN(Cc1ccc(F)cc1Cl)S(=O)(=O)c1c(F)c(F)c(F)c(F)c1F` [Compound 1244, 4-(2-(N-(2-chloro-4-fluorobenzyl)-(2,3,4,5,6-pentafluorophenyl)sulfon-amido)-N-(3,5-dicyclopropylbenzyl)acetamido)-3-isopropylbenzoic acid] the value was 10 to 20 µM.
`COCCOc1cc(C(=O)O)ccc1N(Cc1cc(C2CC2)cc(C2CC2)c1)C(=O)CN(Cc1ccc(F)cc1Cl)S(=O)(=O)c1c(F)c(F)c(F)c(F)c1F` [Compound 1245, 4-(2-(N-(2-chloro-4-fluorobenzyl)-(2,3,4,5,6-pentafluorophenyl)sulfon-amido)-N-(3,5-dicyclopropylbenzyl)acetamido)-3-(2-methoxyethoxy)benzoic acid] returned a half-life at 25 μM in data set [1] of 2.37 to 4.12 h. Moreover, the IC50 in data set [2] (Homo sapiens, Fibroblast) was 0.001 to 10 µM.
The matching figures for `O=C(O)c1ccc(N(Cc2nc(C3CC3)cc(C3CC3)n2)C(=O)CN(Cc2ccc(F)cc2Cl)S(=O)(=O)c2c(F)c(F)c(F)c(F)c2F)c(OC2CC2)c1` [Compound 1247, 4-(2-(N-(2-chloro-4-fluorobenzyl)-(2,3,4,5,6-pentafluorophenyl)sulfon-amido)-N-((4,6-dicyclopropylpyrimidin-2-yl)methyl)acetamido)-3-cyclopropoxybenzoic acid]: 2.37 to 4.12 h and 10 to 20 µM.
In the case of `Cc1cc(C(=O)O)ccc1N(Cc1cc(C2CC2)cc(C(C)(C)C)c1)C(=O)CN(Cc1ccc(F)cc1Cl)S(=O)(=O)c1c(F)c(F)c(F)c(F)c1F` [Compound 1250, 4-(N-(3-(tert-butyl)-5-cyclopropylbenzyl)-2-(N-(2-chloro-4-fluorobenzyl)-(2,3,4,5,6-pentafluorophenyl)sulfon-amido)acetamido)-3-methylbenzoic acid], the IC50 was in the range of 0.01 to 316 nM in data set [3] (Homo sapiens, MV4-11) and 0.001 to 10 µM in data set [2] (Homo sapiens, Fibroblast).
Consider `O=C(O)c1ccc(N(Cc2cc(C3CC3)cc(C3CC3)c2)C(=O)CN(Cc2ccc(F)cc2Cl)S(=O)(=O)c2c(F)c(F)c(F)c(F)c2F)c(OC2CCSC2)c1` (centres unmarked) [Compound 1264, 4-(2-(N-(2-chloro-4-fluorobenzyl)-(2,3,4,5,6-pentafluorophenyl)sulfon-amido)-N-(3,5-dicyclopropylbenzyl)acetamido)-3-((tetrahydrothiophen-3-yl)oxy)benzoic acid], for which the concentration for half-maximal inhibition (IC50) in data set [2] (Homo sapiens, Fibroblast) is 10 to 20 µM.
Take `CCOc1cc(C(=O)O)ccc1N(Cc1cc(C2CC2)cc(C2CC2)c1)C(=O)CN(Cc1ccc(F)cc1C#N)S(=O)(=O)c1c(F)c(F)c(F)c(F)c1F` [Compound 1275, 4-(2-((N-(2-cyano-4-fluorobenzyl)-2,3,4,5,6-pentafluorophenyl)sulfonamido)-N-(3,5-dicyclopropylbenzyl)acetamido)-3-ethoxybenzoic acid]: the IC50 was in the range of 0.01 to 316 nM in data set [3] (Homo sapiens, MV4-11) and 0.001 to 10 µM in data set [2] (Homo sapiens, Fibroblast).
